Test results as given in ChEMBL document CHEMBL1201862, “PubChem BioAssay data set” (2004).
Structures can show the parent of a compound that is named as a salt. Active and inactive are the calls of the source.

Legend:
[1] = inhibitors of SNCA 5'UTR-driven reporter translation, confirmation, H4 neuroglioma cells, luminescence (AID 1988); format: functional, cell-based
[2] = Luminescence Cell-Based Dose Response HTS to Identify Inhibitors of 5'UTR Stem-Loop Driven Prion Protein mRNA Translation in H4 Neuroglioblastoma Cells. [Related pubchem assays: 1827 (Project Summary), 1813 (Primary HTS)]; format: functional
[3] = inhibitors of firefly luciferase expression or activity, dose response, H4 neuroglioma cells, luminescence (AID 1990); format: functional, cell-based
[4] = cytotoxicity toward NIH3T3 fibroblasts, dose response, counter-screen, cell-based, ATP luminescence, mouse fibroblasts (AID 2010); format: functional;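 note: cells exposed to compound for about 90 hours before reading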
[5] = target: T1, RNA-binding protein pos-1 (Caenorhabditis elegans, UniProt G5EF15); assay: inhibitors of POS-1/mex-3 RNA binding, dose response, biochemical, fluorescence polarization (AID 1964);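 note: purified POS-1 fused to maltose binding protein made in E. coli; potency of compounds blocking POS-1 binding to fluorescent RNA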
T1 sequence (G5EF15 whole entry): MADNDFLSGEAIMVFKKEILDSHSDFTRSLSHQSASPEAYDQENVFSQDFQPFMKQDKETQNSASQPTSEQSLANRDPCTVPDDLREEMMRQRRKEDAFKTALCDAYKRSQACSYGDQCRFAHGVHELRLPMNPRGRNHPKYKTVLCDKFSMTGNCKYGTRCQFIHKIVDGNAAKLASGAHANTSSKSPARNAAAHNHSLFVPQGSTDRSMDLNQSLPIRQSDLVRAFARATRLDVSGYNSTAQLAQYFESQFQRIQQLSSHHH

[6] = inhibitors of intracellular T. cruzi replication, confirmation, NIH3T3 host cells, beta-gal luminescence (AID 2044); format: functional, cell-based;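 note: intracellular parasites grown in NIH/3T3 mouse fibroblasts as host cells; luminescent beta-galactosidase reporter signal from transgenic T. cruzi replicating inside host cells; inhibitors lower the luminescence signal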
[7] = target: T2, Zinc finger protein mex-5 (Caenorhabditis elegans, UniProt Q9XUB2); assay: MEX-5/TCR-2 RNA interaction inhibitors, dose response, biochemical, C. elegans, fluorescence polarization (AID 1960)
T2 sequence (Q9XUB2 whole entry): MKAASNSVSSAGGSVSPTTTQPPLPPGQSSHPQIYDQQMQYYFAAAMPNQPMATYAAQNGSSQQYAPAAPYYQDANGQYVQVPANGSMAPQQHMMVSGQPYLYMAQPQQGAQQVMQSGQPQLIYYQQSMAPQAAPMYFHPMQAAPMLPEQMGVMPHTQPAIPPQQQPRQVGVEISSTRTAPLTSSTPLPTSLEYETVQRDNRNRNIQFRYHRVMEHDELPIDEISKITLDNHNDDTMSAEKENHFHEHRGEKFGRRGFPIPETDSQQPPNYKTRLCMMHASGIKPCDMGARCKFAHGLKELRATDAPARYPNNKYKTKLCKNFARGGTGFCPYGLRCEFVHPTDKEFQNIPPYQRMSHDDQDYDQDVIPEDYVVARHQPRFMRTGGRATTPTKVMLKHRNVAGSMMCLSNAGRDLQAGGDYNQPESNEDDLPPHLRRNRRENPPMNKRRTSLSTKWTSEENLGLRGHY

[8] = target: T3, Short transient receptor potential channel 4 (Mus musculus, UniProt Q9QUQ5); assay: mouse TRPC4 channel inhibitors, dose response, cell-based, HEK293 TRPC4/mu-opioid, Fluo-4 calcium (AID 434942); format: functional;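 note: potency of inhibitors blocking the TRPC4 calcium response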
T3 sequence (Q9QUQ5 whole entry): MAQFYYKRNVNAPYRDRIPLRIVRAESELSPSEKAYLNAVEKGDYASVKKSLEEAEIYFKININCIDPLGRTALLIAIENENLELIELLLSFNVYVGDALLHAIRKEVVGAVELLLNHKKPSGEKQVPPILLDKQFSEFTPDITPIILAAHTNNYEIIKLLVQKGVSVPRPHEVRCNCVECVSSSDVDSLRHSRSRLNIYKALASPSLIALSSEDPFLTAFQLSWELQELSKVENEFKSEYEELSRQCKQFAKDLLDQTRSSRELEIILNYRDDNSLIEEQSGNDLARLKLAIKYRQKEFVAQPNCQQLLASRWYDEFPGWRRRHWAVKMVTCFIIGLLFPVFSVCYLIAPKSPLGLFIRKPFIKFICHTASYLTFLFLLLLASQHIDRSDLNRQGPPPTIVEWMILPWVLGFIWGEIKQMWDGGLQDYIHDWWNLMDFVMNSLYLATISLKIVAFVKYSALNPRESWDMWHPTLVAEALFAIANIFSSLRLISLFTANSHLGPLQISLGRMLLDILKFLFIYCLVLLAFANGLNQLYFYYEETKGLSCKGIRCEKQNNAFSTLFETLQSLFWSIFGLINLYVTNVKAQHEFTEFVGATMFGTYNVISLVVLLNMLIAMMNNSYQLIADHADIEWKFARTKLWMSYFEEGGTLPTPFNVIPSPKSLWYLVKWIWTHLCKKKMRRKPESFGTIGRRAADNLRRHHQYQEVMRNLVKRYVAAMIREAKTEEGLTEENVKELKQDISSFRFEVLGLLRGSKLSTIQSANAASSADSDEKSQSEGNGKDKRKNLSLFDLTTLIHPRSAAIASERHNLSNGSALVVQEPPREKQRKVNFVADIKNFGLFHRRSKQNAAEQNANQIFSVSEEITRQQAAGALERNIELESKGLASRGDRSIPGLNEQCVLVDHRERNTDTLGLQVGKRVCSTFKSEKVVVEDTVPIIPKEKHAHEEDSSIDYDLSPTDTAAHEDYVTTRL

[9] = growth suppression of beta-catenin-knockout colon cells, dose response, cell-based, HCT116, human colon tumor (AID 1045); format: functional;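 note: HCT116 colon tumor cells with beta catenin knocked out; cells exposed to compound for 60 hours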
[10] = growth suppression of PTEN-null colon cells, dose response, cell-based, HCT116 PTEN knockout (AID 1047); format: functional;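 note: HCT116 colon tumor cells with PTEN knocked out; cells exposed to compound for 60 hours before readout; potency for loss of cell viability measured by luminescence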
[11] = cells; format: functional, cell-based
[12] = cells; format: functional, cell-based; remark: listed apart in the source
[13] = target: Fatty acid synthase (Homo sapiens, UniProt P49327); assay: FAS thioesterase domain inhibitors, dose response, biochemical, kinetic fluorescence intensity (AID 624326); format: functional;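 note: rate of fluorescence rise from hydrolysis of a fluorogenic O-methyl fluorescein ester substrate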
Chain of Fatty acid synthase (P49327 whole entry, the tested form may be a part): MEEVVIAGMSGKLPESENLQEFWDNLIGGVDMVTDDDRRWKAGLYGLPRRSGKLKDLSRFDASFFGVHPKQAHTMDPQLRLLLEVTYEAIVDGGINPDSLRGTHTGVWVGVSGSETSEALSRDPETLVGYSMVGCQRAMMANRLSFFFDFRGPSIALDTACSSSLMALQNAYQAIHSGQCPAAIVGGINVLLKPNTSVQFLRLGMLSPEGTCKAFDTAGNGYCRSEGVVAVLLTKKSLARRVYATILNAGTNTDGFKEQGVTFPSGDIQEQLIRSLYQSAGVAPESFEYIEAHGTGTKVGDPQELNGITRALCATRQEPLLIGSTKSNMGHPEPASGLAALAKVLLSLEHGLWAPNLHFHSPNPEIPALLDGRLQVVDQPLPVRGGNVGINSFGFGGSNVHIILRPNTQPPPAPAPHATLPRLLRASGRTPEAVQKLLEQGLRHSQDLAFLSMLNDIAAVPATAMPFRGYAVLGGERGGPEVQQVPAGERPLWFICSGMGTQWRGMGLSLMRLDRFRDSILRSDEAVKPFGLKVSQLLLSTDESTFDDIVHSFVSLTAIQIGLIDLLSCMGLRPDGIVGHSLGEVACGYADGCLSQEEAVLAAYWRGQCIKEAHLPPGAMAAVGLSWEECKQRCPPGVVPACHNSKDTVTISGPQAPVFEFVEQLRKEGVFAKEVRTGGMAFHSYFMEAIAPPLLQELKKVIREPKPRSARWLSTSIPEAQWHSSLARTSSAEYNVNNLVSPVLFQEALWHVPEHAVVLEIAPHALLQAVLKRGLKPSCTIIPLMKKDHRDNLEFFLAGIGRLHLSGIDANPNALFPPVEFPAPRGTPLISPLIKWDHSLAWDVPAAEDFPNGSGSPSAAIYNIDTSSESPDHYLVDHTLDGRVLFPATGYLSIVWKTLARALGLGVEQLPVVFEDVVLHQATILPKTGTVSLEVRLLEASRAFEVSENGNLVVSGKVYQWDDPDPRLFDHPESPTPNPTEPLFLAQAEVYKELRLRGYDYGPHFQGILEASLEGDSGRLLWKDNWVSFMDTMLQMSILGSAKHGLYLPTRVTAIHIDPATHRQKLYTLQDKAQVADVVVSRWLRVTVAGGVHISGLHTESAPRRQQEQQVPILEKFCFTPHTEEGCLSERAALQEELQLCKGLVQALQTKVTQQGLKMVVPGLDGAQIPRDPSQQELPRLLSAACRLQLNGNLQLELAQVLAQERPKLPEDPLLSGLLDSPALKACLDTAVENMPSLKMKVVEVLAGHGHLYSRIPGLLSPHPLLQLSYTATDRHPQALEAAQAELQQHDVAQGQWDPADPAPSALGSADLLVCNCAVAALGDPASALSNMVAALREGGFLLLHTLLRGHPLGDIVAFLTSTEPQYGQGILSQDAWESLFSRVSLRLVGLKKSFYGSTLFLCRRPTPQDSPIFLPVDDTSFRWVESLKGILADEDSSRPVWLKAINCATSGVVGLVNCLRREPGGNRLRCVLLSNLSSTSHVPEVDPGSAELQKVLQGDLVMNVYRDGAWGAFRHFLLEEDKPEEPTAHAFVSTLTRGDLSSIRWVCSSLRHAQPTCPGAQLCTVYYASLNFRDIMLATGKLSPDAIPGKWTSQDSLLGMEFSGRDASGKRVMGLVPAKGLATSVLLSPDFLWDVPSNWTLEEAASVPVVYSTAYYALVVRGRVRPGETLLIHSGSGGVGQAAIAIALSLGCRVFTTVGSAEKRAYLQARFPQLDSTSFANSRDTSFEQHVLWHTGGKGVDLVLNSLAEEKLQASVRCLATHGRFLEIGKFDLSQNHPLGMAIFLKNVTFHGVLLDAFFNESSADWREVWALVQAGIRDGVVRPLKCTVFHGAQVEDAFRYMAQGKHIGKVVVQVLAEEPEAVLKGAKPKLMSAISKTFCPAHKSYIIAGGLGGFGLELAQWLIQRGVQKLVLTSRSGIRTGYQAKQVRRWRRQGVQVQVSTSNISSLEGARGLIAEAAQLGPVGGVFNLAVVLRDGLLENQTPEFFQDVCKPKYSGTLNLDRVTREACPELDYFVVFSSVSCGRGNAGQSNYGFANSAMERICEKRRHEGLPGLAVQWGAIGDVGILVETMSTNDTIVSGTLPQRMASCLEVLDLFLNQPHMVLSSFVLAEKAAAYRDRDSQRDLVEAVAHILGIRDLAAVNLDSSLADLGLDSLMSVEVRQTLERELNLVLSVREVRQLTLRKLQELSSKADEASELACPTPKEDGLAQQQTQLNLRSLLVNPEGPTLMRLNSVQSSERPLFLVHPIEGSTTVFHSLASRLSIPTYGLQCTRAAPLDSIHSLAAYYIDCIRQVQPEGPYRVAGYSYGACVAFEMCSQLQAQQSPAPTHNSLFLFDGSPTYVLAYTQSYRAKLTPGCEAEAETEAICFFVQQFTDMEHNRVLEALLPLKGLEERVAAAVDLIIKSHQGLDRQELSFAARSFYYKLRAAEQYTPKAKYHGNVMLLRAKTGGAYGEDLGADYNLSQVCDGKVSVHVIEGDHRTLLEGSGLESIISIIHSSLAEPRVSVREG

[14] = tested on: INS1; assay: beta cell apoptosis inhibitors, cytokine rescue, dose response, luminescence, retest (AID 449756); format: functional, cell-based; settings: Rattus norvegicus;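 note: cell death triggered by IL-1 beta plus TNF-alpha plus IFN-gamma mixture; protective hits raise ATP signal compared with cytokine alone wells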
[15] = tested on: P388/ADR; assay: cells; format: functional; settings: Mus musculus
[16] = tested on: SN12K1; assay: cells; format: functional; settings: Homo sapiens
[17] = tested on: P388; assay: cells; format: functional; settings: Mus musculus
[18] = tested on: H4; assay: Luminescence Cell-Based Dose Response HTS to Identify Activators of 5'UTR Stem-Loop Driven Prion Protein mRNA Translation in H4 Neuroglioblastoma Cells. [Related pubchem assays: 1829 (Project Summary), 1814 (Primary HTS)]; format: functional; settings: Homo sapiens
[19] = Luminescence Cell-Based Dose Confirmation HTS to Identify Activators of 5'UTR Stem-Loop Driven Alpha-Synuclein mRNA Translation in H4 Neuroglioblastoma Cells. [Related pubchem assays: 1829 (Project Summary), 1814 (Primary HTS)]; format: functional
[20] = Luminescence Cell-Based Dose Response HTS to Identify Activators of Luciferase Translation or Activity in H4 […] Cells. [Related pubchem assays: 1829 (Project Summary), 1814 (Primary HTS)]; format: functional
[21] = P. falciparum Dd2 growth inhibitors, dose response, SYBR Green, cherry-picked samples (AID 1159567); format: functional, cell-based

N=c1c(S(=O)(=O)c2ccc(Cl)cc2)cc2c(=O)n3ccccc3nc2n1C1CCCC1
EC50 [1]: 31.7 µM (active) | EC50 [2]: > 120 µM (not active) | EC50 [3]: 24.8 µM (active) | EC50 [4]: 11.4 µM (active) | EC50 [5]: 135 µM (active) | EC50 [6]: 0.87 µM (active) | EC50 [7]: 148 µM (inconclusive)

CCOC(=O)c1c(NC(=O)C2CCCCC2C(=O)O)sc2c1CCCCC2 (centres undefined)
EC50 [8]: 5.96 µM (active)

Cc1cc(C)cc(C(=O)NC(=S)Nc2ccc(-c3cc4ccccc4oc3=O)cc2)c1
EC50 [9]: 12.4 µM (active) | EC50 [10]: 11.7 µM (active)

CC(C)(C)c1ccc(N2C(=O)CC(C/C=C/c3ccccc3)C2=O)cc1 (centres undefined)
EC50 [11]: > 350 µM (not active) | EC50 [12]: > 350 µM (not active)

COC(=O)c1cc(C(=O)NC(C)C2CC3CCC2C3)cc([N+](=O)[O-])c1 (centres undefined)
IC50 [13]: 11.5 µM (active)

Fc1ccccc1COc1ccccc1CNCc1ccncc1
EC50 [8]: 7.5 µM (active) | EC50 [4]: > 60 µM (not active) | EC50 [6]: 1.45 µM (active)

Cc1cccc2cc(CN(Cc3nnnn3Cc3ccccc3)C3CCCC3)c(O)nc12
EC50 [8]: 0.149 µM (active)

CC(=O)Nc1cccc(C(=O)/C=C/c2cccs2)c1
EC50 [9]: 7.79 µM (active) | EC50 [10]: 11.3 µM (active)

Cc1cccc(NC(=O)Nc2cccc(Oc3c(F)c(F)c(F)c(F)c3F)c2)c1
EC50 [9]: 24.5 µM (active) | EC50 [10]: 17.3 µM (active) | EC50 [4]: 7.63 µM (active) | AC50 [14]: 4.92 µM (active) | EC50 [6]: 3.06 µM (active)

O=C(O)c1cn2c3c(cc(N4CCN(CCO)CC4)cc3c1=O)SCC2
GI50 [15]: > 100 µM (inactive) | GI50 [16]: 40.5 µM (inactive) | GI50 [17]: 61.5 µM (inactive)

CCCNC(=O)c1cc(-c2ccco2)on1
EC50 [18]: 50.4 µM (active) | EC50 [11]: > 350 µM (not active) | EC50 [19]: 13.7 µM (active) | EC50 [20]: 59.3 µM (active) | EC50 [12]: 10 µM (active)

Cc1ccc(C)c(N2CCN(CCCNC(=O)Cn3cc4c(n3)CCCCC4)CC2)c1
EC50 [9]: 11.8 µM (active) | EC50 [10]: 14.5 µM (active)

CC(OCC(O)CN(C)CCOc1ccccc1)c1ccc(Cl)cc1 (centres undefined)
EC50 [8]: 3.76 µM (active)

CCOC(=O)c1c(NC(=O)CCC(=O)O)sc2c1CCCCC2
EC50 [11]: 24.5 µM (active) | EC50 [12]: > 350 µM (not active)

CCN(CCCCCN(C)C)Cc1cc2ccccc2o1
EC50 [11]: > 350 µM (not active) | EC50 [12]: > 350 µM (not active)

COc1cc(C(=O)Nc2nc(-c3ccc(Cl)cc3)c(C)s2)ccc1OCC(=O)Nc1ccc(F)cc1
EC50 [9]: 1.46 µM (active) | EC50 [10]: 1.92 µM (active)

CCOc1c(Cl)cc(CNC(C)C(O)c2ccccc2)cc1OC (centres undefined)
EC50 [8]: 1.33 µM (active)

O=C(Nc1ccccc1)N(C1=NCCCCS1)c1cccc2ccccc12
EC50 [11]: 43.7 µM (active) | EC50 [12]: > 350 µM (not active)

CC(=O)Nc1cccc(NC(=O)CS(=O)(=O)c2cn(CC(=O)N3CCOCC3)c3ccccc23)c1
EC50 [11]: > 350 µM (not active) | EC50 [12]: > 350 µM (not active)

Cc1c(CN2CCC(n3nccc3NC(=O)CCc3ccccc3)CC2)cnn1C
EC50 [8]: 0.421 µM (active)

O=C(NC(Cc1ccc(I)cc1)C(=O)O)c1ccc(Cl)cc1 (centres undefined)
GI50 [15]: 62.1 µM (inactive) | GI50 [16]: > 100 µM (inactive) | GI50 [17]: 72.4 µM (inactive)

CC[C@@]1(O)C[C@H](OC2CC(N(C)C)C(O)C(C)O2)c2c(cc3c(c2O)C(=O)c2c(O)ccc(O)c2C3=O)[C@H]1C(=O)OC (some centres undefined)
GI50 [15]: 0.0175 µM (active) | GI50 [16]: 0.0328 µM (active) | GI50 [17]: 0.0175 µM (active)

CCCCCCCCCCCCCCCCNCC(O)CN (centres undefined)
GI50 [15]: 2.05 µM (inactive) | GI50 [16]: 1.77 µM (inactive) | GI50 [17]: 1.95 µM (inactive)

COC(=O)C1C(O)C(C)C(O)OC1C(C)C(O)C(C)/C=C\C=C(/C)C(=O)Nc1c(C)c(OC(C)=O)c2c(c1O)C(=O)C(C)=C1OCOC(/C(C)=C/C(C)=O)=C12 (centres undefined)
GI50 [15]: 13.2 µM (inactive) | GI50 [16]: 13.3 µM (inactive) | GI50 [17]: 1.93 µM (inactive)

O=S(=O)(O)c1ccc(/N=N\c2ccc(/N=N\c3ccc(/C=C/c4ccc(/N=[N+](/[O-])c5ccc(/C=C/c6ccc(/N=N/c7ccc(/N=N\c8ccc(S(=O)(=O)O)cc8)cc7)cc6S(=O)(=O)O)c(S(=O)(=O)O)c5)cc4S(=O)(=O)O)c(S(=O)(=O)O)c3)cc2)cc1
GI50 [15]: > 100 µM (inactive) | GI50 [16]: > 100 µM (inactive) | GI50 [17]: > 100 µM (inactive)

COc1cc(O)c2c(c1)C(=O)c1cc3c(c(O)c1C2=O)C(OC1OC(C)C(O)C(O)C1OC)C(OC)C(C)(O)C3=O (centres undefined)
GI50 [15]: 7.59 µM (inactive) | GI50 [16]: 2.42 µM (inactive) | GI50 [17]: 5.66 µM (inactive)

Cc1ccc(NC(=O)COc2ccc(/C=C3/S/C(=N/c4ccccc4)N(Cc4cccnc4)C3=O)cc2)cc1
EC50 [1]: > 120 µM (not active) | EC50 [2]: > 120 µM (not active) | EC50 [3]: > 120 µM (not active) | EC50 [5]: > 300 µM (not active) | EC50 [7]: > 300 µM (not active)

C[C@@H]1CN([C@@H](C)CO)C(=O)c2cccc(NC(=O)C3CC3)c2O[C@H]1CN(C)Cc1ccc(-c2ccccc2)cc1
AC50 [21]: 3.44 µM (active)

COc1cccc(-c2cn(CC[C@@H]3CC[C@H](NS(=O)(=O)c4ccccc4Cl)[C@H](CO)O3)nn2)c1
AC50 [21]: 7.33 µM (active)

COc1ccccc1CN1C[C@@H](C)[C@H](OC)CN(C)C(=O)c2cc(NC(=O)Nc3ccccc3OC)ccc2OC[C@H]1C
AC50 [21]: 4.12 µM (active)

O=Cc1c(Cn2ccnc2)c2cc([N+](=O)[O-])ccc2n1Cc1ccccc1
GI50 [15]: 63 µM (inactive) | GI50 [16]: 50.8 µM (inactive) | GI50 [17]: 40.8 µM (inactive)

CCN(CC)CCNc1ccc(CO)c2sc3ccccc3c(=O)c12 [HYCANTHONE MESYLATE]
GI50 [15]: 7.35 µM (inactive) | GI50 [16]: 7.43 µM (inactive) | GI50 [17]: 2.94 µM (inactive)
